PubChem BioAssay (NCI)
Several values for one entry are separate records, joined by “and”; a condition that tells them apart may be missing. Equal entries are not always repeated.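 Cells were grown in 96-well plates and exposed to each compound for 48 hours at five concentrations; endpoints were interpolated linearly between bracketing concentrations, or set to the highest concentration if not reached. GI50 = concentration required for 50% inhibition of growth. TGI: concentration producing complete growth inhibition.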

Experiments:
Assay in all cases: DTP human tumour cell line panel, 48 h
RXF 393 renal = system: RXF 393 renal
NCI-H460 lung = system: NCI-H460 lung
UACC-62 melanoma = system: UACC-62 melanoma
HS 578T breast = system: HS 578T breast
RPMI-8226 leukemia = system: RPMI-8226 leukemia
MOLT-4 leukemia = system: MOLT-4 leukemia
SW-620 colon = system: SW-620 colon
SK-MEL-5 melanoma = system: SK-MEL-5 melanoma
IGROV1 ovarian = system: IGROV1 ovarian
OVCAR-8 ovarian = system: OVCAR-8 ovarian

Compound	GI50 (RXF 393 renal) [µM]	TGI (RXF 393 renal)	GI50 (NCI-H460 lung) [µM]	TGI (NCI-H460 lung) [µM]	GI50 (UACC-62 melanoma) [µM]	TGI (UACC-62 melanoma)	GI50 (HS 578T breast) [µM]	TGI (HS 578T breast) [µM]	GI50 (RPMI-8226 leukemia) [µM]	TGI (RPMI-8226 leukemia)	GI50 (MOLT-4 leukemia) [µM]	TGI (MOLT-4 leukemia)	GI50 (SW-620 colon) [µM]	TGI (SW-620 colon)	GI50 (SK-MEL-5 melanoma) [µM]	TGI (SK-MEL-5 melanoma) [µM]	GI50 (IGROV1 ovarian) [µM]	TGI (IGROV1 ovarian)	GI50 (OVCAR-8 ovarian) [µM]	TGI (OVCAR-8 ovarian)
COc1ccc(-c2nc(-c3nc4ccc(OC)cc4[nH]3)c3ccccn23)cc1	24.2	> 100 µM	3.23	14	4.51	22 µM	2.57	7.15	1.72	5.57 µM	3.37	16.9 µM	4.26	> 100 µM	1.6	4.41	2.7	6.98 µM	2.35	7.6 µM
CN[C@@H](C)C(=O)N[C@H](C(=O)N1CCC[C@H]1C(=O)Nc1snnc1-c1ccccc1)C1CCCCC1	5.18	40.1 µM	58.1	> 100	16.2	34.2 µM	72.8	> 100	43.9	> 100 µM	36.6	> 100 µM	> 100	> 100 µM	16.7	33.9	76.9	> 100 µM	13.8	21.3 µM
CC1CCC(NC(=O)N(CCCl)N=O)CC1 (stereo not drawn)	16.7	33.5 µM and 72.9 µM	28	100	7.87	29.7 µM and 53.5 µM		155	12.5	37 µM and 103 µM		40.2 µM and 66.6 µM	17.7	37.4 µM and 71.5 µM	29.8	> 87.5	22.6	80.7 µM and 89 µM	20	47.3 µM and 120 µM
COc1c(C)c2c(c(O)c1C/C=C(\C)CCC(=O)O)C(=O)OC2	0.604	> 100 µM	0.116	> 100	0.444	> 100 µM	0.853	> 100	0.518	> 100 µM	0.208	> 100 µM	0.167	> 100 µM	0.411	> 100	0.253	> 100 µM	0.443	> 100 µM
C[C@H]1[C@H](C)CC[C@]2(CO)CC[C@]3(C)C(=CC[C@@H]4[C@@]5(C)CCCNC(C)(C)[C@@H]5CC[C@]43C)[C@H]12	1.81	3.51 µM	1.78	3.35	1.85	3.35 µM	2.05	4.86	1.85	4.14 µM	1.37	3.15 µM	1.79	3.54 µM	1.7	3.09	1.85	3.72 µM	1.96	3.61 µM
Cc1ccc(S(=O)(=O)N/N=C/c2c(O)ccc3ccccc23)cc1		42.4 µM		> 100		49.4 µM		46.8		> 100 µM		> 100 µM		> 100 µM		> 100		84.5 µM		> 100 µM
C=C(C)C(=O)Nc1ccc(NC(C)C)cc1	> 100	> 100 µM	> 100	> 100	> 100	> 100 µM	> 100	> 100	> 100	> 100 µM	> 100	> 100 µM	> 100	> 100 µM	> 100	> 100	> 100	> 100 µM	> 100	> 100 µM
C=C1CCC2C3(C)COC(c4ccc(N(C)C)cc4)OC3CCC2(C)C1C/C=C1/C(=O)OCC1O (stereo not drawn)	1.97	4.06 µM	4.1	16.5	4.26	16.9 µM	2.13	6.69	1.23	3.8 µM	1.97	5.68 µM	1.95	4.25 µM	7.2	20.3	2.44	6.02 µM	3.78	18.9 µM
O=C(O)C(/C=C/c1ccccc1)c1ccccc1 (stereo not drawn)		> 100 µM		> 100		> 100 µM		> 100		> 100 µM		> 100 µM		> 100 µM		> 100		> 100 µM		> 100 µM
COc1ccc(-c2cn(-c3cc(OC)c(OC)c(OC)c3)c(SCc3ccccc3)n2)cc1OC	> 100	> 100 µM	> 100	> 100	> 100	> 100 µM	> 100	> 100	> 100	> 100 µM	73.3	> 100 µM	> 100	> 100 µM	68.2	> 100	> 100	> 100 µM	> 100	> 100 µM
C=C1C(=O)O[C@H]2[C@H]1CC/C(COC(=O)NCc1cn(C)c3ccccc13)=C\CC[C@@]1(C)O[C@@H]21	1.26	2.7 µM	2.77	10.1	1.69	4.33 µM	3.54	35.7	0.696	4.22 µM	1.92	5.98 µM	0.524	1.98 µM	1.41	2.74	1.58	3.31 µM	1.4	5.18 µM
O=C(CCCCCCCCC(=O)N/N=C\c1ccccc1O)N/N=C\c1ccccc1O	0.353	2.95 µM	0.27	1.47	0.331	5.54 µM	3.55	41.6	1.03	35.8 µM	0.338	7.37 µM	1.28	24.1 µM	0.231	1.12	1.73	54.5 µM	0.349	5.8 µM
O=[N+]([O-])O.[Cu+2].[NH-]CC[NH-].[NH-]CC[NH-]	> 10	> 10 µM	> 10	> 10	> 10	> 10 µM	> 10	> 10	> 10	> 10 µM	> 10	> 10 µM	> 10	> 10 µM	> 10	> 10	> 10	> 10 µM	> 10	> 10 µM
